# Data as given in ChEMBL document CHEMBL4507292 (2021).
# What was measured:
# [1] = tested on: Tyrosine-protein kinase ABL1 (Homo sapiens), P00519 [M351T]; conditions: Compound concentration 1000.0 nM
# [2] = molecular target: Calcium/calmodulin-dependent protein kinase type II subunit delta (Homo sapiens) (UniProt Q13557); conditions: Compound concentration 1000.0 nM
# [3] = molecular target: Cyclin-dependent kinase 11B (Homo sapiens) (UniProt P21127); conditions: Compound concentration 1000.0 nM
# [4] = molecular target: Dual specificity protein kinase CLK1 (Homo sapiens) (UniProt P49759); conditions: Compound concentration 1000.0 nM
# [5] = molecular target: Dual specificity protein kinase CLK4 (Homo sapiens) (UniProt Q9HAZ1); conditions: Compound concentration 1000.0 nM
# [6] = molecular target: Casein kinase I isoform gamma-2 (Homo sapiens) (UniProt P78368); conditions: Compound concentration 1000.0 nM
# [7] = molecular target: Mitogen-activated protein kinase kinase kinase 12 (Homo sapiens) (UniProt Q12852); conditions: Compound concentration 1000.0 nM
# [8] = molecular target: Dual specificity tyrosine-phosphorylation-regulated kinase 1B (Homo sapiens) (UniProt Q9Y463); conditions: Compound concentration 1000.0 nM
# [9] = molecular target: Ephrin type-B receptor 1 (Homo sapiens) (UniProt P54762); conditions: Compound concentration 1000.0 nM
# [10] = molecular target: Mitogen-activated protein kinase 7 (Homo sapiens) (UniProt Q13164); conditions: Compound concentration 1000.0 nM
# [11] = molecular target: Mitogen-activated protein kinase kinase kinase kinase 4 (Homo sapiens) (UniProt O95819); conditions: Compound concentration 1000.0 nM
# [12] = molecular target: Misshapen-like kinase 1 (Homo sapiens) (UniProt Q8N4C8); conditions: Compound concentration 1000.0 nM
# [13] = molecular target: Dual specificity mitogen-activated protein kinase kinase 7 (Homo sapiens) (UniProt O14733); conditions: Compound concentration 1000.0 nM
# [14] = molecular target: MAP kinase-interacting serine/threonine-protein kinase 1 (Homo sapiens) (UniProt Q9BUB5); conditions: Compound concentration 1000.0 nM
# [15] = molecular target: Muscle, skeletal receptor tyrosine-protein kinase (Homo sapiens) (UniProt O15146); conditions: Compound concentration 1000.0 nM
# [16] = molecular target: Cyclin-dependent kinase 17 (Homo sapiens) (UniProt Q00537); conditions: Compound concentration 1000.0 nM
# [17] = molecular target: Cyclin-dependent kinase 14 (Homo sapiens) (UniProt O94921); conditions: Compound concentration 1000.0 nM
# [18] = molecular target: Phosphatidylinositol 4,5-bisphosphate 3-kinase catalytic subunit delta isoform (Homo sapiens) (UniProt O00329); conditions: Compound concentration 1000.0 nM
# [19] = molecular target: Ribosomal protein S6 kinase alpha-5 (Homo sapiens) (UniProt O75582); conditions: Compound concentration 1000.0 nM
# [20] = molecular target: Ribosomal protein S6 kinase alpha-2 (Homo sapiens) (UniProt Q15349); conditions: Compound concentration 1000.0 nM
# [21] = molecular target: Serine/threonine-protein kinase Sgk2 (Homo sapiens) (UniProt Q9HBY8); conditions: Compound concentration 1000.0 nM
# [22] = molecular target: Serine/threonine-protein kinase SIK1 (Homo sapiens) (UniProt P57059); conditions: Compound concentration 1000.0 nM
# [23] = molecular target: STE20-like serine/threonine-protein kinase (Homo sapiens) (UniProt Q9H2G2); conditions: Compound concentration 1000.0 nM
# [24] = molecular target: Serine/threonine-protein kinase tousled-like 1 (Homo sapiens) (UniProt Q9UKI8); conditions: Compound concentration 1000.0 nM
# [25] = molecular target: Non-receptor tyrosine-protein kinase TYK2 (Homo sapiens) (UniProt P29597); conditions: Compound concentration 1000.0 nM
# [26] = molecular target: Wee1-like protein kinase (Homo sapiens) (UniProt P30291); conditions: Compound concentration 1000.0 nM
# [27] = molecular target: Serine/threonine-protein kinase WNK2 (Homo sapiens) (UniProt Q9Y3S1); conditions: Compound concentration 1000.0 nM
# [28] = molecular target: T1, Alpha-1D adrenergic receptor (Homo sapiens) (UniProt P25100); conditions: Compound concentration 10.0 uM
# T1 sequence (whole entry): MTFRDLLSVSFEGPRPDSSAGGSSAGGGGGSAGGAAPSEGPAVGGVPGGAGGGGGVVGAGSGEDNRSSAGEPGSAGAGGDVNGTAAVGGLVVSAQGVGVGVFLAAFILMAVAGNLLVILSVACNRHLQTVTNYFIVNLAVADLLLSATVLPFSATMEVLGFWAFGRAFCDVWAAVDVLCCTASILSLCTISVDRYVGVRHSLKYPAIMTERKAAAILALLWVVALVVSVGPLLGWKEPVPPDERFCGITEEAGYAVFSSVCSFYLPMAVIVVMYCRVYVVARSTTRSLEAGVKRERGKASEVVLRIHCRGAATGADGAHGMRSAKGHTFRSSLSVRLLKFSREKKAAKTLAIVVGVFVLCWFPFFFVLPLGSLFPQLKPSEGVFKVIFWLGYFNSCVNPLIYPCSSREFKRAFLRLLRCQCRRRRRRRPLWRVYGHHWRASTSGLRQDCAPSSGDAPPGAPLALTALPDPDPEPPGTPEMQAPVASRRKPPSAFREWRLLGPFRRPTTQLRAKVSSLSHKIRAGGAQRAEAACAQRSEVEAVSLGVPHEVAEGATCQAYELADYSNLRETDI
# [29] = molecular target: T1, Alpha-1D adrenergic receptor (Homo sapiens); test: Inhibition of Adrenergic alpha1D at 10 µM in the Eurofins-Panlabs radioligand binding assay (Eurofins_assay_203400); conditions: Compound concentration 10.0 uM
# [30] = molecular target: Interstitial collagenase (Homo sapiens) (UniProt P03956); test: Inhibition of Peptidase, Matrix Metalloproteinase-1 (MMP-1) at 10 µM in the Eurofins-Panlabs enzyme assay (Eurofins_assay_114110); conditions: Compound concentration 10.0 uM
# [31] = Inhibition of Phosphodiesterase PDE4 at compound concentration of 10.0 uM in the Eurofins-Panlabs enzyme assay (Eurofins_assay_154000); type: protein assay, Homo sapiens; design: substrate with concentration 1.01 uM [3 H]cAMP + cAMP, incubation time 20 min, incubation temperature 25 C
# [32] = molecular target: Histamine H3 receptor (Homo sapiens) (UniProt Q9Y5N1); test: Histamine H3 Eurofins-Panlabs radioligand binding assay; conditions: Compound concentration 10.0 uM
# [33] = molecular target: Cannabinoid receptor 1 (Homo sapiens) (UniProt P21554); test: Cannabinoid CB1 Eurofins-Panlabs radioligand binding assay; conditions: Compound concentration 10.0 uM
# Rattus norvegicus = species on record: Rattus norvegicus; test: Serotonin (5-Hydroxytryptamine) 5-HT1, Non-Selective Eurofins-Panlabs radioligand binding assay; type: protein assay; conditions: concentration not given here
# [34] = molecular target: Endothelin receptor type B (Homo sapiens) (UniProt P24530); conditions: Compound concentration 10.0 uM
# [35] = molecular target: Gamma-aminobutyric acid type B receptor subunit 1 (Homo sapiens) (UniProt Q9UBS5); conditions: Rattus norvegicus; Compound concentration 10.0 uM
# Dual specificity protein kinase CLK4 (Homo sapiens), sequence (Q9HAZ1 whole entry, looked up, canonical isoform): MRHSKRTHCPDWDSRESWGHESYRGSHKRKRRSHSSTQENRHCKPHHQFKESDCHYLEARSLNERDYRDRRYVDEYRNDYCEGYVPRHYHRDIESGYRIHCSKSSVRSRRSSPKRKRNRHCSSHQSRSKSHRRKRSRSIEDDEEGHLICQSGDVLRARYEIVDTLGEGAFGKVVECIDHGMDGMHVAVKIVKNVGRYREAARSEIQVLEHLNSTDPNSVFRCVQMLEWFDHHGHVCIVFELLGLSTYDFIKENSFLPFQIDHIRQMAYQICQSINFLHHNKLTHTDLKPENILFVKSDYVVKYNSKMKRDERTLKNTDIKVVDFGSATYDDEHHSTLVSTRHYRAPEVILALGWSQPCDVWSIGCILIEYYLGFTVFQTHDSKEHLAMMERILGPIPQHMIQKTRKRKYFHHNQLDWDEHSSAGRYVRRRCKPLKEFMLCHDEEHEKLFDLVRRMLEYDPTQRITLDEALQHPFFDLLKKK
# Cyclin-dependent kinase 17 (Homo sapiens), sequence (Q00537 whole entry, looked up): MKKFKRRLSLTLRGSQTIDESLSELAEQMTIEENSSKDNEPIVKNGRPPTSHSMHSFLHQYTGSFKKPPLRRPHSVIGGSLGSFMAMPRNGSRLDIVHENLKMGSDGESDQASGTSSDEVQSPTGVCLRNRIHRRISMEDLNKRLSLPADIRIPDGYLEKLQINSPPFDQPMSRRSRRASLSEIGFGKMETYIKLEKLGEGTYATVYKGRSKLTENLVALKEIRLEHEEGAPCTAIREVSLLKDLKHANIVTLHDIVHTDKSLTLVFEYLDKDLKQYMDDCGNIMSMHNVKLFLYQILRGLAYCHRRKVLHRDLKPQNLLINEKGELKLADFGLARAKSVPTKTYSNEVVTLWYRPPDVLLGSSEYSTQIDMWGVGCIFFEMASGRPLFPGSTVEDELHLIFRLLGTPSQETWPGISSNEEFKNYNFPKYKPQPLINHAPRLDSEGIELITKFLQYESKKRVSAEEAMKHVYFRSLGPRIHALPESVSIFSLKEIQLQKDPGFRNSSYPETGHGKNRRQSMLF
# Dual specificity tyrosine-phosphorylation-regulated kinase 1B (Homo sapiens), sequence (Q9Y463 whole entry, looked up): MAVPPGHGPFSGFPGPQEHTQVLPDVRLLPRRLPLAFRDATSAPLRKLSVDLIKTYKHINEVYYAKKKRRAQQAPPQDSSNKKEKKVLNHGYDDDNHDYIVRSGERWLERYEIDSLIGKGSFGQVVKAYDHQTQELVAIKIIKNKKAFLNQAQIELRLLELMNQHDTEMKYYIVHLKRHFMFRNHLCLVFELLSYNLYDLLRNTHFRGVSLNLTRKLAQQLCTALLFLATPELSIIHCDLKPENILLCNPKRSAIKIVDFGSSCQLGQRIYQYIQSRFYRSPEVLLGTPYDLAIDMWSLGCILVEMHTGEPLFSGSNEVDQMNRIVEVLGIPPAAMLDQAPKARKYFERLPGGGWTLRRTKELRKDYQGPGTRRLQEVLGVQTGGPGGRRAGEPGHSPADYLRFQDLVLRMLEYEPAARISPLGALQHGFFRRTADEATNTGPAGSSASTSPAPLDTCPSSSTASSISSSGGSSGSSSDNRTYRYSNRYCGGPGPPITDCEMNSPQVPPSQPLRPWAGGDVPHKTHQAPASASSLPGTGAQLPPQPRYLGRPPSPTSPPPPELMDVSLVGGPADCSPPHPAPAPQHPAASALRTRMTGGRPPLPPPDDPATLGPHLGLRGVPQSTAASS
# Calcium/calmodulin-dependent protein kinase type II subunit delta (Homo sapiens), sequence (Q13557 whole entry): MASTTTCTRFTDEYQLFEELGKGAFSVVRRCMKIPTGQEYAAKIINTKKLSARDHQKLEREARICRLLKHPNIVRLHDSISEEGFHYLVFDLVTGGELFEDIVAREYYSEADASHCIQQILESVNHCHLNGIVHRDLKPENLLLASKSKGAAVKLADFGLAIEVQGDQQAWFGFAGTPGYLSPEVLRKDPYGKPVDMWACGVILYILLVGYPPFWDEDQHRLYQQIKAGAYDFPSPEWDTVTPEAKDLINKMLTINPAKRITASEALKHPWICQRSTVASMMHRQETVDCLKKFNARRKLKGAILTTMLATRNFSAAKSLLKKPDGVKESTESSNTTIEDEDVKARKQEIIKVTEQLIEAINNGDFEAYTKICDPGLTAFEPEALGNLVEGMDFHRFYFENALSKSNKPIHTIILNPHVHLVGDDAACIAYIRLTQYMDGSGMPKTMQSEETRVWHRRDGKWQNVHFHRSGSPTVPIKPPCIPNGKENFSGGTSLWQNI
# Dual specificity protein kinase CLK1 (Homo sapiens), sequence (P49759 whole entry, looked up): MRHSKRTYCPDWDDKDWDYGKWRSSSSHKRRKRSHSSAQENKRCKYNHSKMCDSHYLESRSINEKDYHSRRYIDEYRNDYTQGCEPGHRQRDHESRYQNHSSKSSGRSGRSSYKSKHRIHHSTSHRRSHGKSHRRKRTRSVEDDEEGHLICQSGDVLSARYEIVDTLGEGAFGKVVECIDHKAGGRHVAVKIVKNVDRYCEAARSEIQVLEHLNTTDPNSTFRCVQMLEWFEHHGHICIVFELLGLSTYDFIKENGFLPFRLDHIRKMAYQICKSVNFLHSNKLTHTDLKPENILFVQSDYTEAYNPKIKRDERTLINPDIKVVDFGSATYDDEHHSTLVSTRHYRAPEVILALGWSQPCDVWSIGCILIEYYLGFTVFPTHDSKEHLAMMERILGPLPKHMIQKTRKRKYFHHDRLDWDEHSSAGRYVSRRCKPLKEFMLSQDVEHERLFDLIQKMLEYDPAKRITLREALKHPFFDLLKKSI
# Misshapen-like kinase 1 (Homo sapiens), sequence (Q8N4C8 whole entry, looked up): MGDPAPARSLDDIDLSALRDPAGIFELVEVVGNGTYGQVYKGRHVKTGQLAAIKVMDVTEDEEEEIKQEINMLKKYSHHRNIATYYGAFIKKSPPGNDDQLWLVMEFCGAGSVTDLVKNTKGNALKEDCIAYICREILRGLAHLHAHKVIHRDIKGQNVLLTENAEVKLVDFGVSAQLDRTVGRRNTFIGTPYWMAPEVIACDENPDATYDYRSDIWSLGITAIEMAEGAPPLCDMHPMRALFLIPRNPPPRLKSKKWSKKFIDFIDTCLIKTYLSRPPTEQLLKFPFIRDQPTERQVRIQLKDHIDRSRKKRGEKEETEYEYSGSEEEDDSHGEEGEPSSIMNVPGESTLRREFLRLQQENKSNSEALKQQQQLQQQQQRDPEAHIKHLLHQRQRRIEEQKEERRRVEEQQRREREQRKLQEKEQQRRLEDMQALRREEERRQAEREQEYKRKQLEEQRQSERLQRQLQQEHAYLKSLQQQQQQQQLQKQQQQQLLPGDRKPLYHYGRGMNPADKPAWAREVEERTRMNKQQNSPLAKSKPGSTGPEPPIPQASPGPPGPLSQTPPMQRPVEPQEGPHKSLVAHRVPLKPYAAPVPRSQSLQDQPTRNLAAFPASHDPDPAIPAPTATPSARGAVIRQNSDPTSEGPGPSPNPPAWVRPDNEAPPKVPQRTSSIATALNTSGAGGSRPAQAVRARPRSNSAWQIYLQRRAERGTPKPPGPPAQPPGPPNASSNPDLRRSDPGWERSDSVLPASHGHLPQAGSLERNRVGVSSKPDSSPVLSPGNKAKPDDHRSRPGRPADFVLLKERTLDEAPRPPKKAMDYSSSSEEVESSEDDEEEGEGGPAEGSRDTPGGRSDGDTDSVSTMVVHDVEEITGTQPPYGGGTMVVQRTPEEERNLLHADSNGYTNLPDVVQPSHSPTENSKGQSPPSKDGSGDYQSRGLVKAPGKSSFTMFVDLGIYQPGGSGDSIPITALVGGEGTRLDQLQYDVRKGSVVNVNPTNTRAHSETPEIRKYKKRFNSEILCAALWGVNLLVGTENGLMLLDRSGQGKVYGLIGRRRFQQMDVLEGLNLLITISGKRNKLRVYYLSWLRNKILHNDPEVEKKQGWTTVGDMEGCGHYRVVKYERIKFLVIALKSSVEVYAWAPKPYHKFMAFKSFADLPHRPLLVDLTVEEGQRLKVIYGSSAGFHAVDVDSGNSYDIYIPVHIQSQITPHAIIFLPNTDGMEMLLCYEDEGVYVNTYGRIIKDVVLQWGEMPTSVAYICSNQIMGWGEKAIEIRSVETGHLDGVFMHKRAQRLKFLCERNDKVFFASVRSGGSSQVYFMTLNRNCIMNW
# Serine/threonine-protein kinase SIK1 (Homo sapiens), sequence (P57059 whole entry): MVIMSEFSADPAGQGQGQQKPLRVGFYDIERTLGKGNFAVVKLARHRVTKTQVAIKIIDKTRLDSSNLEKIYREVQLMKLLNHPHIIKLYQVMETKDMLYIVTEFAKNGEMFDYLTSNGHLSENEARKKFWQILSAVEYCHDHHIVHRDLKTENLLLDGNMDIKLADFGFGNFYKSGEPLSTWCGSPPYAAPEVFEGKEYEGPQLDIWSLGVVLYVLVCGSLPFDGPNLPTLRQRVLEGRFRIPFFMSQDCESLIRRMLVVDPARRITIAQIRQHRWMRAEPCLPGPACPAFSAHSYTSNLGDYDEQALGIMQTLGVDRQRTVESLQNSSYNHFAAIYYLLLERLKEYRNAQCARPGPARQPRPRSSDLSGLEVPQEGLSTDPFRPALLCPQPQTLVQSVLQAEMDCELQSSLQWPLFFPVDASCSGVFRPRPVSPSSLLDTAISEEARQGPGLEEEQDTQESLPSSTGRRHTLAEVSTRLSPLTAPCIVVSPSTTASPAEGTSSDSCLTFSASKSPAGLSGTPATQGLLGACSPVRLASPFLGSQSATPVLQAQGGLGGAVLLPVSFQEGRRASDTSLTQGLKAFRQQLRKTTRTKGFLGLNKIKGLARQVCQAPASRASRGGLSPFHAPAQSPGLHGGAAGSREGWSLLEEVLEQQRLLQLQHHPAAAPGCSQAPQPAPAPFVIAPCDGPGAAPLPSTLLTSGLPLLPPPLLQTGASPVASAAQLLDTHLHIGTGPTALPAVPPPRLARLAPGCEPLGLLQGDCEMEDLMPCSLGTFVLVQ
SMILES,residual activity [1],residual activity [2],residual activity [3],residual activity [4],residual activity [5],residual activity [6],residual activity [7],residual activity [8],residual activity [9],residual activity [10],residual activity [11],residual activity [12],residual activity [13],residual activity [14],residual activity [15],residual activity [16],residual activity [17],residual activity [18],residual activity [19],residual activity [20],also measured
Cc1c(C(=O)O)cc(-c2ccc(C3CCNCC3)cc2)c2ccc(-c3ccc(C(F)(F)F)cc3)cc12 [PPTN-NC],100%,100%,100%,100%,100%,100%,100%,74%,100%,100%,76%,100%,100%,100%,100%,100%,100%,100%,100%,100%,residual activity [21]: 100%; residual activity [22]: 94%; residual activity [23]: 100%; residual activity [24]: 100%; residual activity [25]: 100%; residual activity [26]: 80%; residual activity [27]: 100%; inhibition [28]: 13.3%
O=C(O)c1cc(-c2ccc(C3CCNCC3)cc2)c2ccc(-c3ccc(C(F)(F)F)cc3)cc2c1 [PPTN],100%,100%,100%,100%,100%,100%,100%,88%,100%,100%,87%,98%,100%,100%,90%,100%,100%,98%,100%,100%,inhibition [29]: -5%; inhibition [30]: -10%; IC50 [31]: 100 µM; inhibition [32]: 0%; inhibition [33]: -6%; inhibition (Rattus norvegicus): 5%; residual activity [21]: 100%; residual activity [22]: 100%; residual activity [23]: 100%; residual activity [24]: 100%; residual activity [25]: 100%; residual activity [26]: 98%; residual activity [27]: 100%; inhibition [28]: 33.5%; inhibition [34]: -1%; inhibition [35]: 3%
